Experimental data published in US8455649B2, “Insecticidal substituted azinyl derivatives” (Dow AgroSciences, LLC, priority 2007, dated 2013).
Read-outs that look alike come from different tables or passages of the source.

How the values were obtained:
[1] = tested on: Beet Armyworm (Spodoptera exigua); experiment: Insecticidal diet-surface test for beet armyworm; format: in vivo; details: 120 h, read-out: LAPHEG AVG % Mortality (50 μg/cm^2)
Method: (§1) The compounds identified in Table 1 were tested against beet armyworm and corn earworm as follows:
(§2) Insecticidal Test for Corn Earworm (Helicoverpa zea) and Beet Armyworm (Spodoptera exigua).
(§3) To prepare test solution, the test compound was formulated at 2000 ppm solution as 4 mg/2 mL of 9 acetone:1 tap water. 50 μL of the 2000 ppm (equivalent to 50 μg/cm^2 dose on diet surface area) test solution was pipetted upon the surface of 1 mL of lepidopteran diet (Southland Multi-Species Lepidopteran Diet) contained in each of eight wells per insect species (one well=1 replication). A second-instar corn earworm and beet armyworm was placed upon the treated diet in each well once the solvent had air-dried. Trays containing the treated diet and larvae were covered and then held in a growth chamber at 25° C., 50-55% RH, and 16 hr light:8 hr dark for 5 days. Observation were conducted 5 days after treatment and infestation. The number of dead insects of 8 per species per treatment was then determined and the results are given in Table 2 as a percent control at a dose of […].

[2] = tested on: Corn Earworm (Helicoverpa zea); experiment: Insecticidal diet-surface test for corn earworm; format: in vivo; details: 120 h, read-out: HELIZE AVG % Mortality (50 μg/cm^2)
Method: as §1, §2, §3

[3] = second-instar larvae on treated diet, 50 μg/cm^2 on diet surface, 5 days after treatment, 8 insects per treatment

SMILES	mortality at 50 µg/cm2 [1, 3]	mortality at 50 µg/cm2 [2, 3]	mortality at 50 µg/cm2 [2]	mortality at 50 µg/cm2 [1]
CCOCN(C(=O)N(COCc1ccccc1)c1nc(OCC(F)(F)F)cc(OCC(F)(F)F)n1)c1ccc(C(F)(F)F)cc1 [Compound 33, N-Benzyloxymethyl-N-[4,6-bis(2,2,2-trifluoroethoxy)pyrimidin-2-yl]-N′-ethoxymethyl-N′-[4-(trifluoromethyl)phenyl]urea]	100%	100%	–	–
O=C(Nc1ccc(C(F)(F)F)c(F)c1)Nc1nc(OCC(F)(F)F)cc(OCC(F)(F)F)n1 [Compound 78]	100%	100%	–	–
O=C(Nc1nc(OCC(F)(F)F)cc(OCC(F)(F)F)n1)Nc1ccccc1OC(F)(F)F [Compound 134]	100%	100%	–	–
FC(F)(F)COc1cc(OCC(F)(F)F)nc(NC(=S)Nc2ccc(C(F)(F)F)cc2)n1 [Compound 130]	100%	100%	–	–
Cc1c(OCC(F)(F)F)nc(NC(=O)N(C)c2ccc(C(F)(F)F)cc2)nc1OCC(F)(F)F [Compound 141]	100%	100%	–	–
CN(C(=S)Nc1nc(OCC(F)(F)F)cc(OCC(F)(F)F)n1)c1ccc(C(F)(F)F)nc1 [Compound 133]	100%	100%	–	–
CCN(C(=O)Nc1nc(OCC(F)(F)F)cc(OCC(F)(F)F)n1)c1ccc(OC(F)(F)F)cc1 [Compound 27]	100%	100%	–	–
Cc1c(OCC(F)(F)F)nc(NC(=O)Nc2ccc(C(F)(F)F)cc2)nc1OCC(F)(F)F [Compound 147]	88%	100%	–	–
CN(C(=S)Nc1nc(OCC(F)(F)F)cc(OCC(F)(F)F)n1)c1ccc(C(F)(F)F)cc1 [Compound 131, N′-[4,6-bis(2,2,2-trifluoroethoxy)pyrimidin-2-yl]-N-methyl-N-[4-(trifluoromethyl)phenyl]thiourea]	100%	100%	–	–
O=C(Nc1ccc(Br)nc1)Nc1cc(C(F)(F)F)cc(OCC(F)(F)F)n1 [Compound 171]	100%	100%	–	–
CCOC(=O)N(C(=O)Nc1nc(OCC(F)(F)F)cc(OCC(F)(F)F)n1)c1ccc(C(F)(F)F)cc1 [Compound 35]	100%	–	100%	–
O=C(Nc1ccc(OC(F)=C(Cl)Cl)cc1)Nc1nc(OCC(F)(F)F)cc(OCC(F)(F)F)n1 [Compound 16]	100%	0%	–	–
N#Cc1ccc(NC(=O)Nc2nc(OCC(F)(F)F)cc(OCC(F)(F)F)n2)cc1Cl [Compound 55]	–	–	100%	0%
CN(C(=O)Nc1cc(OCC(F)(F)F)nc(OCC(F)(F)F)n1)c1ccc([N+](=O)[O-])cc1 [Compound 111]	100%	88%	–	–
CN(C(=O)Nc1nc(OCC(F)(F)F)cc(OCC(F)(F)F)n1)c1ccc([N+](=O)[O-])cc1 [Compound 79]	100%	100%	–	–
CN(C(=O)Nc1nc(OCC(F)(F)F)cc(OCC(F)(F)F)n1)c1cc(F)c(Br)cc1F [Compound 182]	100%	100%	–	–
CN(C(=O)Nc1nc(OCC(F)(F)F)cc(OCC(F)(F)F)n1)c1ccc(Cl)nc1 [Compound 48]	100%	100%	–	–
COCCOCN(C(=O)Nc1nc(OCC(F)(F)F)cc(OCC(F)(F)F)n1)c1ccc(C(F)(F)F)cc1 [Compound 62]	100%	100%	–	–
Cc1c(OCC(F)(F)F)nc(NC(=O)Nc2ccc(C(F)(F)F)nc2)nc1OCC(F)(F)F [Compound 143]	100%	100%	–	–
O=C(Nc1ccc(OC(F)(F)F)cc1)Nc1cc(C(F)(F)F)cc(OCC(F)(F)F)n1 [Compound 163]	100%	100%	–	–
O=C(Nc1ccc(C(F)(F)F)cc1)Nc1nc(OCC(F)F)cc(OCC(F)F)n1 [Compound 2]	100%	100%	–	–
COCN(C(=O)N(COCc1ccccc1)c1nc(OCC(F)(F)F)cc(OCC(F)(F)F)n1)c1ccc(C(F)(F)F)cc1 [Compound 37]	100%	100%	–	–
CCN(C(=O)Nc1nc(OCC(F)(F)F)cc(OCC(F)(F)F)n1)c1ccc(Br)nc1 [Compound 46]	100%	100%	–	–
CCc1cc(Br)ccc1N(C)C(=O)Nc1nc(OCC(F)(F)F)cc(OCC(F)(F)F)n1 [Compound 157]	100%	100%	–	–
